Reference: patent US6399562B2, “Solvent compositions” (Ausimont S.p.A., priority 2000, dated 2002)
Where two headings read alike, the source gives them in different places.

Tests used:
[1] = Evaluation of the azeotropic behaviour: boiling temperature at 1.013 bar; assay type: physicochemical; conditions: pressure of 1.013 absolute bar
Protocol: The mixture of known composition and weight is introduced into a small glass cell, previously evacuated, having an internal volume equal to about 20 cm^3, equipped with metal connections, feeding valve and with a pressure transducer to evaluate the system vapour pressure.
The filling ratio by volume is initially equal to about 0.8% by v.
The temperature is measured close to the equilibrium cell by a thermometer the accuracy of which is equal to +/−0.01° C.; particular attention has been paid so that the external temperature measured in the bath is really the internal one of the cell.
By changing the composition of the mixture it is possible to evaluate possible deviations with respect to the ideality and therefore to identify the azeotropic composition which, as said, will be characterized by an absolute minimum or maximum with respect to the pure components.

[2] = Removal of oily products from printed circuits, oil (1); conditions: 5 minutes of dipping
Protocol: (§1) The removal capability of oily products from printed circuits has been checked according to the following procedure:
(§2) a known amount of an oily product is uniformly spread on the surface of a printed circuit having 35×9 mm sizes; 0.100 g of oil are placed only on a single surface of the circuit, then the article is dipped into the solution to be tested.
(§3) After 5 minutes of dipping, the circuit is allowed to dry for additional 5 minutes at room temperature so as to remove the solvent traces and then is weighed again on an analytical balance.
[…] The compositions are placed in a vessel equipped with a condenser which recovers the vapour of the boiling solution.
(§4) In all the tests 30 ml of the solvent solution have been used.
(§5) The results are reported in Table 6 and are expressed as removed oil percentage.

[3] = Removal of oily products from printed circuits, oil (2); conditions: 5 minutes of dipping
Protocol: as §1, §2, §3
(§6) Tests of the solvent mixtures are carried out close to the boiling temperature. The compositions are placed in a vessel equipped with a condenser which recovers the vapour of the boiling solution.
as §4, §5

[4] = Removal of oily products from printed circuits, oil (3); conditions: 5 minutes of dipping
Protocol: as §1, §2, §3, §6, §4, §5

[5] = Removal of oily products from printed circuits, oil (4); conditions: 5 minutes of dipping
Protocol: as §1, §2, §3, §6, §4, §5

[6] = system: rat; experiment: Acute toxicity in rat by os, LD50
[7] = system: rat; experiment: Acute toxicity in rat by inhalation, LC50
[8] = chemical-physical properties of the hydrofluoropolyether
[9] = Preliminary studies relating to acute toxicity; assay type: in vivo
[10] = background statement; cited from earlier work
[11] = solubility of propellants in solvent compositions for aerosol applications; assay type: physicochemical
Protocol: The solubility of HFC 134a, HFC 227ea and HFC 236ea with some solvent compositions for aerosol applications for the cleaning of electronic components has been studied. The solvent composition is placed in a glass test tube having thick walls, resistant to high pressures, and closed at an end by a metal valve. After cooling, the propellant is fed to the test tube and mixed with the solvent mixture. The system is introduced in a thermostatic bath and heated up to 0°, 25° and 50° C. The complete solubility of the propellant in the solvent composition used for the test has been visually observed. The solubility results of the used propellants in the solvent compositions, at the above three different temperatures, are reported in Table 7.

CCCBr [1-Bromo-propane, 1-bromo-propane]
Boiling T of pure Component B [1]: Boiling T = 69.60 °C

FC(F)(Cl)C(F)(Cl)Cl [CFC 113, 1,1,2-trichloro-1,2,2-trifluoroethane]
Percentage of removed oil, oil type (1) ([2]; 23 ° C.): 100 % by weight | Percentage of removed oil, oil type (1) ([2]; 47 ° C.): 100 % by weight | Percentage of removed oil, oil type (2) ([3]; 23 ° C.): 99.5 % by weight | Percentage of removed oil, oil type (2) ([3]; 47 ° C.): 100 % by weight | Percentage of removed oil, oil type (3) ([4]; 23 ° C.): 100 % by weight | Percentage of removed oil, oil type (3) ([4]; 47 ° C.): 100 % by weight | Percentage of removed oil, oil type (4) ([5]; 23 ° C.): 100 % by weight | Percentage of removed oil, oil type (4) ([5]; 47 ° C.): 100 % by weight | Acute toxicity in rat by os, LD50 [6]: 43,000 ppmv/4 hours | Acute toxicity in rat by inhalation, LC50 [7]: 50,000 ppmv/4 hours | Isotherm evaporation rate at 20° C. [8]: 1 mg/min | Surface tension at 20° C. [8]: 18.1 dynes/cm | Liquid density at 25° C. [8]: 1.56 g/mL | Evaporation latent heat ([8]; at 1.013 bar): 144 kJ/kg | Flammability in air [8]: non

FC(F)OC(F)(F)C(F)(F)OC(F)F [HCF2OCF2CF2OCF2H, 1-difluoromethoxy-1,1,2,2-tetrafluoroethyl difluoromethyl ether]
acute toxicity, biological activity [9]: low biological activity | Acute toxicity in rat by os, LD50 [6]: >5,000 ppmv/4 hours | Acute toxicity in rat by inhalation, LC50 [7]: >32,000 ppmv/4 hours | dehydrofluorination reactions (chemical stability) [8]: does not undergo dehydrofluorination reactions | Isotherm evaporation rate at 20° C. [8]: 0.6 mg/min | Surface tension at 20° C. [8]: 15.5 dynes/cm | Liquid density at 25° C. [8]: 1.60 g/mL | Boiling temperature ([8]; at 1.013 bar): 58.21 °C | Evaporation latent heat ([8]; at 1.013 bar): 139 kJ/kg | Flammability in air [8]: non

CC(F)(Cl)Cl [HCFC 141b]
flammability [10]: moderately flammable

FCC(F)(F)F [HFC 134a, 1,1,1,2-tetrafluoroethane]
solubility of the propellant in the solvent composition ([11]; in HCF2OCF2CF2OCF2H/Bromo-propane (75.0) (25.0), propellant 57.2 % by wt, 0 ° C.): S | solubility of the propellant in the solvent composition ([11]; in HCF2OCF2CF2OCF2H/Bromo-propane (75.0) (25.0), propellant 57.2 % by wt, 25 ° C.): S | solubility of the propellant in the solvent composition ([11]; in HCF2OCF2CF2OCF2H/Bromo-propane (75.0) (25.0), propellant 57.2 % by wt, 50 ° C.): S | solubility of the propellant in the solvent composition ([11]; in HCF2OCF2CF2OCF2H/Isopentane (45.0) (55.0), propellant 51.2 % by wt, 0 ° C.): S | solubility of the propellant in the solvent composition ([11]; in HCF2OCF2CF2OCF2H/Isopentane (45.0) (55.0), propellant 51.2 % by wt, 25 ° C.): S | solubility of the propellant in the solvent composition ([11]; in HCF2OCF2CF2OCF2H/Isopentane (45.0) (55.0), propellant 51.2 % by wt, 50 ° C.): S | solubility of the propellant in the solvent composition ([11]; in HCF2OCF2CF2OCF2H/Methyl-acetate (75.0) (25.0), propellant 51.3 % by wt, 0 ° C.): S | solubility of the propellant in the solvent composition ([11]; in HCF2OCF2CF2OCF2H/Methyl-acetate (75.0) (25.0), propellant 51.3 % by wt, 25 ° C.): S | solubility of the propellant in the solvent composition ([11]; in HCF2OCF2CF2OCF2H/Methyl-acetate (75.0) (25.0), propellant 51.3 % by wt, 50 ° C.): S

FC(C(F)(F)F)C(F)(F)F [HFC 227ea, 1,1,1,2,3,3,3-heptafluoropropane]
solubility of the propellant in the solvent composition ([11]; in HCF2OCF2CF2OCF2H/Methyl-acetate (75.0) (25.0), propellant 53.2 % by wt, 0 ° C.): S | solubility of the propellant in the solvent composition ([11]; in HCF2OCF2CF2OCF2H/Methyl-acetate (75.0) (25.0), propellant 53.2 % by wt, 25 ° C.): S | solubility of the propellant in the solvent composition ([11]; in HCF2OCF2CF2OCF2H/Methyl-acetate (75.0) (25.0), propellant 53.2 % by wt, 50 ° C.): S

FC(F)C(F)C(F)(F)F (centres unmarked) [HFC 236ea, 1,1,1,2,3,3-hexafluoropropane]
solubility of the propellant in the solvent composition [11]: S

COC(C)=O [Methyl-acetate, methyl-acetate]
Boiling T of pure Component B [1]: Boiling T = 55.78 °C
